Experimental data taken from US7662862B2, “5-HT7 receptor antagonists” (Laboratorios Del Dr. Esteve, S.A., priority 2004, dated 2010).
Counter-ions that a name gives are not always drawn.

Each molecule was assayed against Cloned Human Serotonin Receptor, Subtype 7 (h5HT7) (Homo sapiens, UniProt P34969) (assay: Radioligand binding assay, [125I]LSD, cloned human 5-HT7 receptor expressed in CHO cells (Flashplate)). Conditions: radioligand [125I]LSD 0.82 nM, 240 min at room temperature, triplicate, read-out: 5-HT7 IC-50.
Chain of Cloned Human Serotonin Receptor, Subtype 7 (h5HT7) (P34969 whole entry): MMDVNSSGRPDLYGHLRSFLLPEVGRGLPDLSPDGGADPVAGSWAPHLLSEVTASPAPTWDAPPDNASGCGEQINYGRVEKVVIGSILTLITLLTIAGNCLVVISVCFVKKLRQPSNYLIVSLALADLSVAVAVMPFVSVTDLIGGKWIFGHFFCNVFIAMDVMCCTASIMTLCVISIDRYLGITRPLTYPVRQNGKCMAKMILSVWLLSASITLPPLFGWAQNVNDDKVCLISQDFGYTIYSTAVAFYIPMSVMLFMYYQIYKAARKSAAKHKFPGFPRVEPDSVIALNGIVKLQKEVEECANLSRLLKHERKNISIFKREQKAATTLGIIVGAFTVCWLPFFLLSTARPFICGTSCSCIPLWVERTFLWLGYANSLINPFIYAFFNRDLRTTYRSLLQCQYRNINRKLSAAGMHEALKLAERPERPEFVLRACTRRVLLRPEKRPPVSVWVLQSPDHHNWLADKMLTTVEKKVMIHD
Description: Biological Assays Radioligand Binding
Radioligand binding assays were performed using the Cloned Human Serotonin Receptor, Subtype 7 (h5HT7), expressed in CHO cells, coated on Flashplate (Basic FlashPlate Cat.: SMP200) from PerkinElmer (Cat.: 6120512). The protocol assay was essentially the recommended protocol in the Technical Data Sheet by PerkinEmer Life and Analytical Sciences. The Mass membrane protein/well was typically 12 μg and the Receptor/well was about 9-10 fmoles. The Flashplate were let equilibrate at room temperature for one hour before the addition of the components of the assay mixture. The binding buffer was: 50 mM Tris-HCl, pH 7.4, containing 10 mM MgCl2, 0.5 mM EDTA and 0.5% BSA. The radioligand was [^125I]LSD at a final concentration of 0.82 nM. Nonspecific binding was determined with 50 μM of Clozapine. The assay volume was 25 μl. TopSeal-A were applied onto Flashplate microplates and they were incubated at room temperature for 240 minutes in darkness. The radioactivity were quantified by liquid scintillation spectrophotometry (Wallac 1450 Microbeta Trilux) with a count delay of 4 minutes prior to counting and a counting time of 30 seconds per well. Competition binding data were analyzed by using the LIGAND program (Munson and Rodbard, LIGAND: A versatile, computerized approach for characterization of ligand-binding systems. Anal. Biochem. 107: 220-239, 1980) and assays were performed in triplicate determinations for each point.

Which IC50 does the source give for CCN(CCCN1CCc2cc(OC)c(OC)c3c2C1CC3)S(=O)(=O)c1cc(Cl)ccc1Cl (centres unmarked) [Compound 80, 2,5-Dichloro-N-[3-(7,8-dimethoxy-2,2a,4,5-tetrahydro-1H-3-aza-acenaphthylen-3-yl)-propyl]-N-ethyl-benzene sulfonamide hydrochloride] here?
The IC50 was 6.2 nM.

Which IC50 does the source give for CCN(CCCN1CCc2cccc3c2C1CC3)S(=O)(=O)c1cccc2ccccc12 (centres unmarked) [Compound 87, Naphthalene-1-sulfonic acid ethyl-[3-(2,2a,4,5-tetrahydro-1H-3-aza-acenaphthylen-3-yl)-propyl]-amide hydrochloride] here?
The IC50 was 20.3 nM.

How did the IC50 turn out when CCN(CCCN1CCc2cccc3c2C1CC3)S(=O)(=O)c1cccc(C)c1 (centres unmarked) [Compound 88, N-Ethyl-3-methyl-N-[3-(2,2a,4,5-tetrahydro-1H-3-aza-acenaphthylen-3-yl)-propyl]-benzenesulfonamide hydrochloride] was run?
Its IC50 is 4.5 nM.

For CCN(CCCN1CCc2cccc3c2C1CC3)S(=O)(=O)c1ccc(C)cc1 (centres unmarked) [Compound 89, N-Ethyl-4-methyl-N-[3-(2,2a,4,5-tetrahydro-1H-3-aza-acenaphthylen-3-yl)-propyl]-benzenesulfonamide hydrochloride], which IC50 is on record?
The IC50 was 6.7 nM.

CCN(CCCN1CCc2cc(OC)c(OC)c3c2C1CC3)S(=O)(=O)c1ccccc1Cl (centres unmarked) [Compound 111, 2-Chloro-N-[3-(7,8-dimethoxy-2,2a,4,5-tetrahydro-1H-3-aza-acenaphthylen-3-yl)-propyl]-N-ethyl-benzenesulfonamide hydrochloride] was tested. Which IC50 did it give?
Its IC50 is 8 nM.
